In ChEMBL document CHEMBL1201862, “PubChem BioAssay data set” (2004):
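Test compounds were applied to cells in 96-well plates for 48 hours at 5 doses. GI50: concentration for 50% inhibition of growth.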 Calls of active or inactive are those of the source. No stated cut-off is given here; in the data, active = GI50 up to about 1.1 µM and inactive = higher.

Assays:
Assay in all cases: NCI anticancer screen, dose series, 48 h
786-0 = system: 786-0
HCT-15 = system: HCT-15
NCI-H460 = system: NCI-H460
SK-MEL-28 = system: SK-MEL-28
SW-620 = system: SW-620
SK-MEL-5 = system: SK-MEL-5
K562 = system: K562
HOP-92 = system: HOP-92
OVCAR-8 = system: OVCAR-8
EKVX = system: EKVX
HL-60 = system: HL-60
Malme-3M = system: Malme-3M
UACC-62 = system: UACC-62
HCC 2998 = system: HCC 2998
RXF 393 = system: RXF 393

Compound | GI50 (786-0) | GI50 (HCT-15) [µM] | GI50 (NCI-H460) | GI50 (SK-MEL-28) | GI50 (SW-620) | GI50 (SK-MEL-5) | GI50 (K562) | GI50 (HOP-92) | GI50 (OVCAR-8) | GI50 (EKVX) | GI50 (HL-60) | GI50 (Malme-3M) | GI50 (UACC-62) | GI50 (HCC 2998) | GI50 (RXF 393)
CC1=C(C(=O)Nc2ccc(Cl)c(Cl)c2)C(c2ccco2)C(C(=O)Nc2ccc(Cl)c(Cl)c2)=C(C)N1 | 13 µM (inactive) | 11.5 | 13.7 µM (inactive) | 11.7 µM (inactive) | 14.6 µM (inactive) | 13.7 µM (inactive) | 7.06 µM (inactive) | 15.8 µM (inactive) | 11.2 µM (inactive) | 14.9 µM (inactive) | 19.3 µM (inactive) | 14.8 µM (inactive) | 12.9 µM (inactive) | 11.5 µM (inactive) | 
CC(c1ccccc1)N1O[C@]12CC[C@@]1(C)C(CCCC13OCCO3)C2 (stereo not given in full) | 19.4 µM (inactive) | 23.3 | 20.4 µM (inactive) | 47.8 µM (inactive) | 16.7 µM (inactive) | 36.1 µM (inactive) |  | 11.1 µM (inactive) | 16.7 µM (inactive) |  |  | 32.1 µM (inactive) | 19.6 µM (inactive) | 75.5 µM (inactive) | 23.6 µM (inactive)
CC(=O)N(C(C)=O)C1=C2c3ccccc3N(S(=O)(=O)c3ccccc3)C2n2c(=O)n(-c3ccccc3)c(=O)n2C1 (stereo not given) | 38.6 µM (inactive) | 30.4 | 15.3 µM (inactive) | 30 µM (inactive) | 40.6 µM (inactive) | 27 µM (inactive) | 40.1 µM (inactive) | 24.2 µM (inactive) | 23.3 µM (inactive) | 21.9 µM (inactive) | 23.3 µM (inactive) | 20.9 µM (inactive) | 18.1 µM (inactive) | 22.7 µM (inactive) | 
O=C(O)\C=C/C=C/C=C/C=C/C(=O)O | > 100 µM (inactive) | > 100 | > 100 µM (inactive) | > 100 µM (inactive) | > 100 µM (inactive) | > 100 µM (inactive) | > 100 µM (inactive) |  | > 100 µM (inactive) | > 100 µM (inactive) | > 100 µM (inactive) | > 100 µM (inactive) | 90.4 µM (inactive) | > 100 µM (inactive) | > 100 µM (inactive)
N#Cc1sc2nc3c(c(-c4ccccc4)c2c1N)CCCC3 | 46 µM (inactive) | 60.5 | 55.2 µM (inactive) | > 100 µM (inactive) | > 100 µM (inactive) |  | > 100 µM (inactive) | 30.1 µM (inactive) | > 100 µM (inactive) |  | > 100 µM (inactive) | > 100 µM (inactive) | > 100 µM (inactive) | > 100 µM (inactive) | 41.8 µM (inactive)
NC(=O)N/N=C(/Cc1nc2ccc(C(=O)c3ccccc3)cc2nc1O)C(=O)Nc1ccc(C(F)(F)F)cc1[N+](=O)[O-] | > 100 µM (inactive) | 50.7 | 65 µM (inactive) | > 100 µM (inactive) | 65.2 µM (inactive) | 56.2 µM (inactive) | 39.6 µM (inactive) | 45.7 µM (inactive) | 77.8 µM (inactive) | 14.2 µM (inactive) | 42.1 µM (inactive) | > 100 µM (inactive) | 38.7 µM (inactive) | 61.4 µM (inactive) | 
O=C1/C(=C/c2ccccc2Cl)COc2ccc(Br)cc21 | 37.4 µM (inactive) |  | > 100 µM (inactive) | > 100 µM (inactive) | 23.8 µM (inactive) |  | 3.82 µM (inactive) | 46.3 µM (inactive) | 56.9 µM (inactive) | > 100 µM (inactive) | 18.5 µM (inactive) | > 100 µM (inactive) |  | > 100 µM (inactive) | 39 µM (inactive)
CC12C=C[C@]3(CC[C@@H]4[C@@](C)(CO)CCC[C@]4(C)C3CC1)C2 (stereo not given in full) | 16 µM (inactive) | 17 | 21 µM (inactive) | 19.2 µM (inactive) | 17.6 µM (inactive) |  | 17.5 µM (inactive) | > 47.3 µM (inactive) | 21.4 µM (inactive) | 24.8 µM (inactive) | 17.9 µM (inactive) | 20.5 µM (inactive) | 15.8 µM (inactive) | > 10 µM (inactive) | 13.7 µM (inactive)
O=c1nc2sc3ccc4ccccc4c3n2nc1O | > 10 µM (inactive) |  | 39.3 µM (inactive) | 40.4 µM (inactive) | 79.4 µM (inactive) | 43.8 µM (inactive) | 44.5 µM (inactive) |  | 94.6 µM (inactive) | 60 µM (inactive) | > 100 µM (inactive) |  | 46.7 µM (inactive) | 54.8 µM (inactive) | 15.5 µM (inactive)
O=C(OC[C@H]1O[C@@H](OC(=O)c2cc(O)c(O)c(O)c2)[C@H](OC(=O)c2cc(O)c(O)c(O)c2)[C@@H](OC(=O)c2cc(O)c(O)c(O)c2)[C@@H]1OC(=O)c1cc(O)c(O)c(O)c1)c1cc(O)c(O)c(O)c1 [PENTAGALLOYL GLUCOSE] | 4.99 µM (inactive) | 5.21 | 3.27 µM (inactive) | 15.3 µM (inactive) | 6 µM (inactive) | 11.3 µM (inactive) | 47.2 µM (inactive) | 5.58 µM (inactive) | 5.22 µM (inactive) | 6.04 µM (inactive) | 3.65 µM (inactive) |  | 2.26 µM (inactive) | 3.21 µM (inactive) | 7.73 µM (inactive)
CC1(C)OC(=O)C(=Cc2ccc(O)cc2)C(=O)O1 | > 100 µM (inactive) | > 100 | > 100 µM (inactive) | > 100 µM (inactive) | > 100 µM (inactive) | > 100 µM (inactive) | > 100 µM (inactive) | > 100 µM (inactive) | > 100 µM (inactive) | > 100 µM (inactive) | > 100 µM (inactive) | > 100 µM (inactive) | > 100 µM (inactive) | > 100 µM (inactive) | 
c1ccc(COc2cccc3cccnc23)cc1 | > 100 µM (inactive) |  | > 100 µM (inactive) | > 100 µM (inactive) | > 100 µM (inactive) | 50.2 µM (inactive) | 55 µM (inactive) | 28.4 µM (inactive) | > 100 µM (inactive) | 83.9 µM (inactive) | 19.9 µM (inactive) | 48.4 µM (inactive) | 95.9 µM (inactive) | > 100 µM (inactive) | 42.4 µM (inactive)
CC1=NN(C(=O)CC(=O)NC(=O)CC(=O)Nc2ccccc2F)C(=O)C1/N=N/c1ccc([N+](=O)[O-])cc1 (stereo not given) | 27.7 µM (inactive) | 33.7 | 37.1 µM (inactive) | > 100 µM (inactive) | 20 µM (inactive) | 44.4 µM (inactive) | 28.1 µM (inactive) | 51.4 µM (inactive) | 47.6 µM (inactive) | 35.1 µM (inactive) |  | 39 µM (inactive) | 55.3 µM (inactive) | 71.6 µM (inactive) | 
C/C(=N\O)C(CN1CCCCC1)C(c1ccccc1)c1c(O)c2ccccc2oc1=O (stereo not given) | > 100 µM (inactive) |  |  | > 100 µM (inactive) | > 100 µM (inactive) | > 100 µM (inactive) | > 10 µM (inactive) | 62.1 µM (inactive) | > 100 µM (inactive) | > 100 µM (inactive) | > 10 µM (inactive) | > 100 µM (inactive) | > 100 µM (inactive) | > 100 µM (inactive) | > 100 µM (inactive)
Nc1ccc(/C=C/c2ccnc3ccccc23)cc1 | 18.6 µM (inactive) | 21 | 16.1 µM (inactive) | 32.4 µM (inactive) | 24.7 µM (inactive) | 15.2 µM (inactive) | 12.7 µM (inactive) | 20.3 µM (inactive) | 21.8 µM (inactive) |  | 3.24 µM (inactive) | 30.3 µM (inactive) | 23.4 µM (inactive) | 28.4 µM (inactive) | 
